Assay results as given in the supplement of paper PMC9663587.

Legend:
Assay in all cases: GRmax, 72 h; higher = less effect;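 note: breast cell lines in 384-well plates, nine doses across a 10^4 range, Dye Drop imaging of viable cells vs DMSO and time-zero plates, GR 0 means no net growth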
[1] = tested on: SUM229PE
[2] = tested on: T47D
[3] = tested on: HS578T
[4] = tested on: SUM52PE
[5] = tested on: CAL851
[6] = tested on: AU565
[7] = tested on: MDAMB361
[8] = tested on: SUM185PE
[9] = tested on: MDAMB453
[10] = tested on: SUM44PE
[11] = tested on: MDAMB231
[12] = tested on: ZR751
[13] = tested on: EVSAT

SMILES | GRmax, 72 h [1] | GRmax, 72 h [2] | GRmax, 72 h [3] | GRmax, 72 h [4] | GRmax, 72 h [5] | GRmax, 72 h [6] | GRmax, 72 h [7] | GRmax, 72 h [8] | GRmax, 72 h [9] | GRmax, 72 h [10] | GRmax, 72 h [11] | GRmax, 72 h [12] | GRmax, 72 h [13] | GRmax, 72 h ([2]; main component drawn) | GRmax, 72 h ([3]; main component drawn) | GRmax, 72 h ([5]; main component drawn) | GRmax, 72 h ([7]; main component drawn) | GRmax, 72 h ([9]; main component drawn) | GRmax, 72 h ([11]; main component drawn)
C[C@@H]1COCCN1c1cc(C2([S@](C)(=N)=O)CC2)nc(-c2cc[nH]c3nccc2-3)n1 [AZD6738] (max 10 µM) | -0.0688 GR | 0.745 GR | 0.0076 GR | -0.174 GR | 0.144 GR | 0.312 GR | -0.166 GR | 0.687 GR | -0.162 GR | -0.206 GR | 0.354 GR | 0.598 GR | 0.742 GR | – | – | – | – | – | –
NC(=O)Nc1cc(-c2cccc(F)c2)sc1C(=O)N[C@H]1CCCNC1 [AZD7762] (max 10 µM) | -0.357 GR | -0.0573 GR | -0.598 GR | -0.322 GR | -0.322 GR | -0.597 GR | -0.675 GR | 0.115 GR | -0.216 GR | -0.704 GR | -0.463 GR | -0.0705 GR | -0.319 GR | – | – | – | – | – | –
Cc1nc(NC(=O)N2CCC[C@H]2C(N)=O)sc1-c1ccnc(C(C)(C)C(F)(F)F)c1 [Alpelisib/BYL719] (max 10 µM) | 0.523 GR | -0.0332 GR | 0.531 GR | 0.0427 GR | 0.293 GR | -0.472 GR | -0.799 GR | 0.15 GR | -0.307 GR | -0.341 GR | 0.69 GR | 0.577 GR | 0.716 GR | – | – | – | – | – | –
CN(C)C/C=C/C(=O)Nc1ccc(O[C@@H]2CCC[C@@H](Nc3ncc(Cl)c(-c4c[nH]c5ccccc45)n3)C2)cc1 [BSJ-01-175] (max 10 µM) | -0.77 GR | -0.719 GR | -0.694 GR | -0.673 GR | -0.535 GR | -0.777 GR | -0.804 GR | -0.47 GR | -0.723 GR | -0.873 GR | -0.562 GR | -0.346 GR | -0.512 GR | – | – | – | – | – | –
CC(=O)c1c(C)c2cnc(Nc3ccc(N4CCN(CCOCCOCCOCCNC(=O)COc5cccc6c5C(=O)N(C5CCC(=O)NC5=O)C6=O)CC4)cn3)nc2n(C2CCCC2)c1=O (configuration not stated) [BSJ-03-123] (max 10 µM) | 0.132 GR | 0.0948 GR | -0.263 GR | 0.227 GR | -0.208 GR | -0.386 GR | -0.0849 GR | 0.665 GR | -0.022 GR | 0.289 GR | -0.181 GR | 0.245 GR | 0.0652 GR | – | – | – | – | – | –
CC(C)Nc1cc(-c2c[nH]c(C(=O)N[C@H](CO)c3cccc(Cl)c3)c2)c(Cl)cn1 [BVD523] (max 10 µM) | 0.265 GR | 0.217 GR | 0.259 GR | 0.315 GR | 0.274 GR | 0.521 GR | 0.27 GR | 0.734 GR | 0.387 GR | -0.0062 GR | 0.213 GR | 0.554 GR | 0.695 GR | – | – | – | – | – | –
Cc1c(N)nc([C@H](CC(N)=O)NC[C@H](N)C(N)=O)nc1C(=O)N[C@H](C(=O)N[C@H](C)[C@@H](O)[C@H](C)C(=O)N[C@H](C(=O)NCCc1nc(-c2nc(C(=O)NCCC[S+](C)C)cs2)cs1)[C@@H](C)O)[C@@H](OC1OC(CO)C(O)C(O)C1OC1OC(CO)C(O)C(OC(N)=O)C1O)c1cnc[nH]1 (some centres not stated) [Bleomycin] (max 10 µM) | – | – | – | – | – | – | – | – | – | – | – | – | – | -0.084 GR | -0.197 GR | -0.107 GR | -0.266 GR | 0.0154 GR | 0.436 GR
Nc1cc(C(F)(F)F)c(-c2cc(N3CCOCC3)nc(N3CCOCC3)n2)cn1 [Buparlisib/NVP-BKM120] (max 10 µM) | -0.285 GR | -0.418 GR | -0.343 GR | -0.183 GR | -0.32 GR | -0.555 GR | -0.958 GR | 0.0382 GR | -0.607 GR | -0.611 GR | -0.235 GR | -0.226 GR | -0.499 GR | – | – | – | – | – | –
COc1cc2nccc(Oc3ccc(NC(=O)C4(C(=O)Nc5ccc(F)cc5)CC4)cc3)c2cc1OC [Cabozantinib] (max 10 µM) | 0.199 GR | 0.313 GR | 0.215 GR | 0.0751 GR | 0.173 GR | 0.312 GR | 0.662 GR | 0.0169 GR | 0.465 GR | 0.288 GR | 0.0749 GR | 1.06 GR | 0.654 GR | – | – | – | – | – | –
COc1cc2c(Oc3ccc4[nH]c(C)cc4c3F)ncnc2cc1OCCCN1CCCC1 [Cediranib/AZD2171] (max 10 µM) | 0.18 GR | -0.64 GR | -0.572 GR | 0.21 GR | -0.238 GR | 0.887 GR | -0.98 GR | 0.0765 GR | -0.689 GR | 0.417 GR | -0.362 GR | 0.672 GR | 0.498 GR | – | – | – | – | – | –
Cc1cc(Nc2ncc(Cl)c(Nc3ccccc3S(=O)(=O)C(C)C)n2)c(OC(C)C)cc1C1CCNCC1 [Ceritinib/LDK378] (max 10 µM) | 0.336 GR | -0.855 GR | -0.436 GR | 0.559 GR | -0.596 GR | 0.498 GR | -0.991 GR | 0.412 GR | -0.687 GR | -0.32 GR | -0.333 GR | -0.159 GR | 0.646 GR | – | – | – | – | – | –
N.N.[Cl][Pt][Cl] [Cisplatin] (max 10 µM) | – | 0.102 GR | 0.0125 GR | – | 0.018 GR | – | -0.35 GR | – | 0.133 GR | – | 0.272 GR | – | – | – | – | – | – | – | –
Cc1nc(Nc2ncc(C(=O)Nc3c(C)cccc3Cl)s2)cc(N2CCN(CCO)CC2)n1 [Dasatinib] (max 10 µM) | -0.112 GR | 0.496 GR | -0.244 GR | -0.322 GR | -0.244 GR | 0.26 GR | 0.0805 GR | 0.388 GR | 0.549 GR | 0.47 GR | -0.126 GR | -0.213 GR | 0.171 GR | – | – | – | – | – | –
COc1cccc2c1C(=O)c1c(O)c3c(c(O)c1C2=O)C[C@@](O)(C(=O)CO)C[C@@H]3O[C@H]1C[C@H](N)[C@H](O)[C@H](C)O1 [Doxorubicin] (max 3.162 µM) | -0.125 GR | -0.361 GR | -0.347 GR | -0.0432 GR | -0.378 GR | -0.452 GR | -0.722 GR | 0.744 GR | -0.348 GR | -0.677 GR | -0.486 GR | -0.0018 GR | -0.192 GR | – | – | – | – | – | –
CO[C@H]1C[C@@H]2CC[C@@H](C)[C@@](O)(O2)C(=O)C(=O)N2CCCC[C@H]2C(=O)O[C@H]([C@H](C)C[C@@H]2CC[C@@H](OCCO)[C@H](OC)C2)CC(=O)[C@H](C)/C=C(\C)[C@@H](O)[C@@H](OC)C(=O)[C@H](C)C[C@H](C)/C=C/C=C/C=C/1C [Everolimus] (max 10 µM) | 0.686 GR | 0.297 GR | 0.42 GR | 0.553 GR | 0.371 GR | 0.4 GR | 0.0574 GR | 0.78 GR | 0.0309 GR | 0.19 GR | 0.711 GR | 0.305 GR | 0.354 GR | – | – | – | – | – | –
CC[C@@]1(O)C(=O)OCc2c1cc1n(c2=O)Cc2cc3c(CN(C)C)c(O)ccc3nc2-1 [Topotecan] (max 10 µM) | – | -0.197 GR | -0.449 GR | – | -0.296 GR | – | -0.762 GR | – | -0.529 GR | – | -0.324 GR | – | – | – | – | – | – | – | –
